{"source": "paper PMC5218480", "about": "(PLoS ONE, 2017)", "tested_on": "MV-4-11 cells", "assay": "Gene expression microarray analysis (Affymetrix PrimeView) and GSEA", "assay_type": "cell-based, human", "parameters": "RFU PODN (11730768_x_at) / Fold change /veh PODN (11730768_x_at) / RFU LINC00158 (11744669_a_at) / Fold change /veh LINC00158 (11744669_a_at) / RFU DUSP10 (11751237_a_at) / Fold change /veh DUSP10 (11751237_a_at) / RFU ID3 (11757404_x_at) / Fold change /veh ID3 (11757404_x_at) / RFU PLEKHG5 (11737974_s_at) / Fold change /veh PLEKHG5 (11737974_s_at) / RFU LRRC4B (11730491_at) / Fold change /veh LRRC4B (11730491_at) / RFU GIMAP4 (11747438_a_at) / Fold change /veh GIMAP4 (11747438_a_at) / RFU KRT8 (11758183_x_at) / Fold change /veh KRT8 (11758183_x_at) / RFU CNN1 (11734310_a_at) / Fold change /veh CNN1 (11734310_a_at) / RFU VPS37D (11726825_at) / Fold change /veh VPS37D (11726825_at) / RFU C10orf10 (11716522_x_at) / Fold change /veh C10orf10 (11716522_x_at) / RFU KIR2DL2 /// KIR2DL4 /// KIR2DL5A /// KIR2DL5B /// KIR2DS1 /// KIR2DS2 /// KIR2DS3 /// KIR2DS4 /// KIR3DL3 /// KIR3DL3 /// KIR3DS1 (11738374_at) / Fold change /veh KIR2DL2 /// KIR2DL4 /// KIR2DL5A /// KIR2DL5B /// KIR2DS1 /// KIR2DS2 /// KIR2DS3 /// KIR2DS4 /// KIR3DL3 /// KIR3DL3 /// KIR3DS1 (11738374_at) / RFU C1QL1 (11718748_at) / Fold change /veh C1QL1 (11718748_at) / RFU TMPRSS4 (11747572_a_at) / Fold change /veh TMPRSS4 (11747572_a_at) / RFU HAMP (11756126_x_at) / Fold change /veh HAMP (11756126_x_at) / RFU RNFT2 (11725882_a_at) / Fold change /veh RNFT2 (11725882_a_at) / RFU NR4A2 (11747474_a_at) / Fold change /veh NR4A2 (11747474_a_at) / RFU ABCC12 (11746883_a_at) / Fold change /veh ABCC12 (11746883_a_at) / RFU TMEM136 (11760407_x_at) / Fold change /veh TMEM136 (11760407_x_at) / RFU CLDN22 /// WWC2 (11732394_at) / Fold change /veh CLDN22 /// WWC2 (11732394_at) / RFU HLA-DPB1 (11760878_x_at) / Fold change /veh HLA-DPB1 (11760878_x_at) / RFU SPINT1 (11716480_a_at) / Fold change /veh SPINT1 (11716480_a_at) / RFU GAP43 (11754022_s_at) / Fold change /veh GAP43 (11754022_s_at) / RFU A4GNT (11735810_at) / Fold change /veh A4GNT (11735810_at) / RFU PRB3 (11715151_x_at) / Fold change /veh PRB3 (11715151_x_at) / RFU TUBB4B (11761932_at) / Fold change /veh TUBB4B (11761932_at) / RFU CAPN14 (11732068_a_at) / Fold change /veh CAPN14 (11732068_a_at) / RFU TMCC2 (11721928_a_at) / Fold change /veh TMCC2 (11721928_a_at) / RFU IRGQ (11745062_a_at) / Fold change /veh IRGQ (11745062_a_at) / RFU FAM174B (11720279_a_at) / Fold change /veh FAM174B (11720279_a_at) / RFU TMPRSS4 (11748680_a_at) / Fold change /veh TMPRSS4 (11748680_a_at) / RFU FAM212B (11763350_a_at) / Fold change /veh FAM212B (11763350_a_at) / RFU PLEKHG5 (11743358_a_at) / Fold change /veh PLEKHG5 (11743358_a_at) / RFU ZSCAN30 (11745921_a_at) / Fold change /veh ZSCAN30 (11745921_a_at) / RFU CMKLR1 (11741424_a_at) / Fold change /veh CMKLR1 (11741424_a_at) / RFU LOC101060620 /// MAPK8IP1 (11723275_at) / Fold change /veh LOC101060620 /// MAPK8IP1 (11723275_at) / RFU SPTSSB (11747773_x_at) / Fold change /veh SPTSSB (11747773_x_at) / RFU PRSS12 (11739890_at) / Fold change /veh PRSS12 (11739890_at) / RFU BIN1 (11741810_x_at) / Fold change /veh BIN1 (11741810_x_at) / RFU WNT11 (11732464_a_at) / Fold change /veh WNT11 (11732464_a_at) / RFU C10orf10 (11716521_a_at) / Fold change /veh C10orf10 (11716521_a_at) / RFU C5orf56 (11738089_at) / Fold change /veh C5orf56 (11738089_at) / RFU CYB561 (11721691_x_at) / Fold change /veh CYB561 (11721691_x_at) / RFU ANKRD19P (11752326_a_at) / Fold change /veh ANKRD19P (11752326_a_at) / RFU OR2T12 /// OR2T33 /// OR2T8 (11738714_s_at) / Fold change /veh OR2T12 /// OR2T33 /// OR2T8 (11738714_s_at) / RFU VCAN (11748164_a_at) / Fold change /veh VCAN (11748164_a_at) / RFU JSRP1 (11732532_at) / Fold change /veh JSRP1 (11732532_at) / RFU KRTAP10-11 (11738290_x_at) / Fold change /veh KRTAP10-11 (11738290_x_at) / RFU MYO3A (11730013_a_at) / Fold change /veh MYO3A (11730013_a_at) / RFU EBF3 (11725865_a_at) / Fold change /veh EBF3 (11725865_a_at) / RFU CAMK2N1 (11719241_x_at) / Fold change /veh CAMK2N1 (11719241_x_at) / RFU C5orf56 (11738088_a_at) / Fold change /veh C5orf56 (11738088_a_at) / RFU OLFML3 (11715873_a_at) / Fold change /veh OLFML3 (11715873_a_at) / RFU LOC100653217 /// NTM (11731650_a_at) / Fold change /veh LOC100653217 /// NTM (11731650_a_at) / RFU MAPK11 (11762145_a_at) / Fold change /veh MAPK11 (11762145_a_at) / RFU FIZ1 (11724087_x_at) / Fold change /veh FIZ1 (11724087_x_at) / RFU OASL (11726364_x_at) / Fold change /veh OASL (11726364_x_at) / RFU SOX15 (11748057_x_at) / Fold change /veh SOX15 (11748057_x_at) / RFU CD79A (11719716_a_at) / Fold change /veh CD79A (11719716_a_at) / RFU HIST1H1D (11736915_at) / Fold change /veh HIST1H1D (11736915_at) / RFU CASKIN2 (11723855_a_at) / Fold change /veh CASKIN2 (11723855_a_at) / RFU LOC730098 (11760151_x_at) / Fold change /veh LOC730098 (11760151_x_at) / RFU OR4N2 (11742367_at) / Fold change /veh OR4N2 (11742367_at) / RFU PRRT2 (11749266_a_at) / Fold change /veh PRRT2 (11749266_a_at) / RFU SNX32 (11753110_a_at) / Fold change /veh SNX32 (11753110_a_at) / RFU CDHR5 (11726645_a_at) / Fold change /veh CDHR5 (11726645_a_at) / RFU RCAN1 (11760418_a_at) / Fold change /veh RCAN1 (11760418_a_at) / RFU FAM167A (11723789_a_at) / Fold change /veh FAM167A (11723789_a_at) / RFU FAM26E (11764081_at) / Fold change /veh FAM26E (11764081_at) / RFU ISYNA1 (11749810_s_at) / Fold change /veh ISYNA1 (11749810_s_at) / RFU ACY1 (11761880_at) / Fold change /veh ACY1 (11761880_at) / RFU 11764098_at / Fold change /veh 11764098_at / RFU SAMD14 (11745864_x_at) / Fold change /veh SAMD14 (11745864_x_at) / RFU NPB (11741838_a_at) / Fold change /veh NPB (11741838_a_at) / RFU TMPRSS6 (11731388_a_at) / Fold change /veh TMPRSS6 (11731388_a_at) / RFU KRTAP10-2 (11738614_at) / Fold change /veh KRTAP10-2 (11738614_at) / RFU ARHGAP8 /// PRR5-ARHGAP8 (11727945_x_at) / Fold change /veh ARHGAP8 /// PRR5-ARHGAP8 (11727945_x_at) / RFU KRTAP5-7 /// NADSYN1 (11734609_at) / Fold change /veh KRTAP5-7 /// NADSYN1 (11734609_at) / RFU RASL12 (11751679_a_at) / Fold change /veh RASL12 (11751679_a_at) / RFU CDKN2B (11736163_a_at) / Fold change /veh CDKN2B (11736163_a_at) / RFU PRF1 (11729649_at) / Fold change /veh PRF1 (11729649_at) / RFU, ZNF638 /// ZNF638-IT1 / Fold change vs veh, ZNF638 /// ZNF638-IT1 / RFU, PANK3 / Fold change vs veh, PANK3 / RFU, SH3YL1 / Fold change vs veh, SH3YL1 / RFU, ZEB2 / Fold change vs veh, ZEB2 / RFU, NRIP1 / Fold change vs veh, NRIP1 / RFU, PTTG1IP / Fold change vs veh, PTTG1IP / RFU, CAPN2 / Fold change vs veh, CAPN2 / RFU, MED14 / Fold change vs veh, MED14 / RFU, SNORA58 / Fold change vs veh, SNORA58 / RFU, C1orf63 / Fold change vs veh, C1orf63 / RFU, LRRFIP1 / Fold change vs veh, LRRFIP1 / RFU, NDUFAF7 / Fold change vs veh, NDUFAF7 / RFU, SLC12A2 / Fold change vs veh, SLC12A2 / RFU, IBTK / Fold change vs veh, IBTK / RFU, ESF1 / Fold change vs veh, ESF1 / Fold change vs veh, TMEM50B / RFU, TAOK1 / Fold change vs veh, TAOK1 / RFU, ACBD3 / Fold change vs veh, ACBD3 / RFU, TMA16 / Fold change vs veh, TMA16 / RFU, RWDD3 / Fold change vs veh, RWDD3 / RFU, BCAT1 / Fold change vs veh, BCAT1 / RFU, EDEM3 / Fold change vs veh, EDEM3 / RFU, TMEM33 / Fold change vs veh, TMEM33 / RFU, WDR75 / Fold change vs veh, WDR75 / RFU, AHCTF1 / Fold change vs veh, AHCTF1 / RFU, TFRC / Fold change vs veh, TFRC / RFU, ZDHHC17 / Fold change vs veh, ZDHHC17 / RFU, NOM1 / Fold change vs veh, NOM1 / RFU, ARL8B / Fold change vs veh, ARL8B / RFU, ZBTB11 / Fold change vs veh, ZBTB11 / RFU, TAMM41 / Fold change vs veh, TAMM41 / RFU, KIAA1704 /// LOC100996395 / Fold change vs veh, KIAA1704 /// LOC100996395 / RFU, ING1 / Fold change vs veh, ING1 / RFU, TRMT61B / Fold change vs veh, TRMT61B / RFU, FUBP3 / Fold change vs veh, FUBP3 / RFU, TP53 / Fold change vs veh, TP53 / RFU, TNKS2 / Fold change vs veh, TNKS2 / RFU, ZFP14 / Fold change vs veh, ZFP14 / RFU, ACTR2 / Fold change vs veh, ACTR2 / RFU, PPP3R1 / Fold change vs veh, PPP3R1 / RFU, PIK3R1 / Fold change vs veh, PIK3R1 / RFU, HNRNPA1 / Fold change vs veh, HNRNPA1 / RFU, RNF170 / Fold change vs veh, RNF170 / RFU, ZNF28 / Fold change vs veh, ZNF28 / RFU, RNGTT / Fold change vs veh, RNGTT / RFU, OGT / Fold change vs veh, OGT / RFU, BRD1 / Fold change vs veh, BRD1 / RFU, MARS / Fold change vs veh, MARS / RFU, ZNF655 / Fold change vs veh, ZNF655 / RFU, FAHD1 / Fold change vs veh, FAHD1 / RFU, BDP1 / Fold change vs veh, BDP1 / RFU, LRRCC1 / Fold change vs veh, LRRCC1 / RFU, ARID1A / Fold change vs veh, ARID1A / RFU, ZNF146 / Fold change vs veh, ZNF146 / RFU, ZNF330 / Fold change vs veh, ZNF330 / RFU, GPN3 / Fold change vs veh, GPN3 / RFU, C9orf123 / Fold change vs veh, C9orf123 / RFU, N4BP2L2 / Fold change vs veh, N4BP2L2 / RFU, ARFIP1 / Fold change vs veh, ARFIP1 / RFU, FAM179B / Fold change vs veh, FAM179B / RFU, BCL10 / Fold change vs veh, BCL10 / RFU, UHRF1BP1L / Fold change vs veh, UHRF1BP1L / RFU, BET1 / Fold change vs veh, BET1 / RFU, CNOT2 / Fold change vs veh, CNOT2 / RFU, ZNF268 / Fold change vs veh, ZNF268 / Fold change vs veh, ZNF507 / RFU, DGCR2 / Fold change vs veh, DGCR2 / RFU, WDSUB1 / Fold change vs veh, WDSUB1 / Fold change vs veh, HSP90B1 /// MIR3652 / RFU, ADSS / Fold change vs veh, ADSS / RFU, GK / Fold change vs veh, GK / RFU, ZNF148 / Fold change vs veh, ZNF148 / RFU, TAF9 / Fold change vs veh, TAF9 / RFU, SLC1A5 / Fold change vs veh, SLC1A5 / RFU, SLMO2 / Fold change vs veh, SLMO2 / RFU, ABCC4 / Fold change vs veh, ABCC4 / RFU, LOC101060439 /// RAP1B / Fold change vs veh, LOC101060439 /// RAP1B / RFU, RFX7 / Fold change vs veh, RFX7 / RFU, GTPBP10 / Fold change vs veh, GTPBP10 / RFU, CNEP1R1 / Fold change vs veh, CNEP1R1 / RFU, BIVM-ERCC5 /// ERCC5 / Fold change vs veh, BIVM-ERCC5 /// ERCC5 / RFU, ILF3 / Fold change vs veh, ILF3 / RFU 11762660_at / Fold change /veh 11762660_at / RFU VCAN (11757783_s_at) / Fold change /veh VCAN (11757783_s_at) / RFU DDX43 (11728927_at) / Fold change /veh DDX43 (11728927_at) / RFU KRT8 (11758188_x_at) / Fold change /veh KRT8 (11758188_x_at) / RFU NKD1 (11759106_at) / Fold change /veh NKD1 (11759106_at) / RFU SRD5A1 (11742802_a_at) / Fold change /veh SRD5A1 (11742802_a_at) / RFU TPSAB1 /// TPSB2 (11721975_s_at) / Fold change /veh TPSAB1 /// TPSB2 (11721975_s_at) / RFU GSTM3 (11746129_a_at) / Fold change /veh GSTM3 (11746129_a_at) / RFU IL23R (11737362_x_at) / Fold change /veh IL23R (11737362_x_at) / RFU TMEM51 (11727254_a_at) / Fold change /veh TMEM51 (11727254_a_at) / RFU PIWIL2 (11732686_x_at) / Fold change /veh PIWIL2 (11732686_x_at) / RFU ORM1 (11744905_x_at) / Fold change /veh ORM1 (11744905_x_at) / RFU CCDC152 (11743942_at) / Fold change /veh CCDC152 (11743942_at) / RFU ECM1 (11717891_a_at) / Fold change /veh ECM1 (11717891_a_at) / RFU IL23R (11748794_a_at) / Fold change /veh IL23R (11748794_a_at) / RFU TNFAIP8L3 (11732012_x_at) / Fold change /veh TNFAIP8L3 (11732012_x_at) / RFU MBOAT4 (11741988_at) / Fold change /veh MBOAT4 (11741988_at) / RFU 11764193_at / Fold change /veh 11764193_at / RFU TMEM53 (11763286_at) / Fold change /veh TMEM53 (11763286_at) / RFU MAGEB2 (11727129_at) / Fold change /veh MAGEB2 (11727129_at) / RFU TMEM200A (11744735_a_at) / Fold change /veh TMEM200A (11744735_a_at) / RFU CCDC152 (11751479_a_at) / Fold change /veh CCDC152 (11751479_a_at) / RFU FAM211A (11726209_a_at) / Fold change /veh FAM211A (11726209_a_at) / RFU RGS16 (11746705_a_at) / Fold change /veh RGS16 (11746705_a_at) / RFU VCAN (11755009_s_at) / Fold change /veh VCAN (11755009_s_at) / RFU RHOB (11743442_s_at) / Fold change /veh RHOB (11743442_s_at) / RFU RGS16 (11720943_a_at) / Fold change /veh RGS16 (11720943_a_at) / RFU RGS16 (11720944_at) / Fold change /veh RGS16 (11720944_at) / RFU, VPS4B / Fold change vs veh, VPS4B / RFU, CREB1 / Fold change vs veh, CREB1 / RFU, DNAJC13 / Fold change vs veh, DNAJC13 / RFU, GNAQ / Fold change vs veh, GNAQ / RFU, CDK5R1 / Fold change vs veh, CDK5R1 / RFU, ZRANB3 / Fold change vs veh, ZRANB3 / RFU, CUL4A / Fold change vs veh, CUL4A / RFU, CCNY / Fold change vs veh, CCNY / RFU, UFL1 / Fold change vs veh, UFL1 / RFU, COG3 / Fold change vs veh, COG3 / RFU, DIAPH2 / Fold change vs veh, DIAPH2 / RFU, SKA2 / Fold change vs veh, SKA2 / RFU, AFF3 / Fold change vs veh, AFF3 / RFU, LMF1 / Fold change vs veh, LMF1 / RFU, IPO11 / Fold change vs veh, IPO11 / RFU, DFFB / Fold change vs veh, DFFB / RFU, FOXP1 / Fold change vs veh, FOXP1 / RFU, CARD8 / Fold change vs veh, CARD8 / RFU, STRN3 / Fold change vs veh, STRN3 / RFU, ADK / Fold change vs veh, ADK / RFU, RASSF2 / Fold change vs veh, RASSF2 / RFU, WIPF1 / Fold change vs veh, WIPF1 / RFU, LARP1B / Fold change vs veh, LARP1B / RFU, RASA1 / Fold change vs veh, RASA1 / RFU, RB1 / Fold change vs veh, RB1 / RFU, PPFIA1 / Fold change vs veh, PPFIA1 / RFU, MAT2A / Fold change vs veh, MAT2A / RFU, CCT5 / Fold change vs veh, CCT5 / RFU, WDR92 / Fold change vs veh, WDR92 / RFU, CUX1 / Fold change vs veh, CUX1 / RFU, TTC7A / Fold change vs veh, TTC7A / RFU, TMEM135 / Fold change vs veh, TMEM135 / RFU, DEPTOR / Fold change vs veh, DEPTOR / RFU, CPM / Fold change vs veh, CPM / RFU, DNAJB6 / Fold change vs veh, DNAJB6 / RFU, CACNA2D3 / Fold change vs veh, CACNA2D3 / RFU, DTX4 / Fold change vs veh, DTX4 / RFU, TFCP2 / Fold change vs veh, TFCP2 / RFU, GMCL1 /// GMCL1P1 / Fold change vs veh, GMCL1 /// GMCL1P1 / RFU, AEBP2 / Fold change vs veh, AEBP2 / RFU, SNHG1 /// SNORD22 /// SNORD25 /// SNORD26 /// SNORD27 /// SNORD28 /// SNORD29 /// SNORD31 / Fold change vs veh, SNHG1 /// SNORD22 /// SNORD25 /// SNORD26 /// SNORD27 /// SNORD28 /// SNORD29 /// SNORD31 / Fold change (Aza/veh), C12orf56 (ProbeSet 11735607_a_at) / Fold change (ACY-1035/veh), C12orf56 (ProbeSet 11735607_a_at) / Fold change (Aza/veh), FGFR1OP (ProbeSet 11751329_s_at) / Fold change (ACY-1035/veh), FGFR1OP (ProbeSet 11751329_s_at) / Fold change (Aza/veh), VPS36 (ProbeSet 11739960_a_at) / Fold change (ACY-1035/veh), VPS36 (ProbeSet 11739960_a_at) / RFU SYPL1 (11715823_x_at) / Fold change /veh SYPL1 (11715823_x_at) / RFU IGFBP7 (11715501_s_at) / Fold change /veh IGFBP7 (11715501_s_at) / RFU REEP3 (11722064_at) / Fold change /veh REEP3 (11722064_at) / RFU IGLL1 (11728026_x_at) / Fold change /veh IGLL1 (11728026_x_at): dose or concentration left out as unconfirmed", "conditions": "MV-4-11 cells, 48 hours", "data": [{"molecule": "Nc1ccc(-c2cccs2)cc1NC(=O)c1ccc2c(c1)cc(C1CC1)n2CCN1CCOCC1", "note": "[ACY-1035]", "values": [{"measurement": "RFU ID3 (11757404_x_at)", "value": 47.18, "unit": "RFU"}]}]}
